Assay results reported in EPA's ToxRefDB 2.

How the values were obtained:
mouse [1] = details: Subchronic oral toxicity in rodents, other, Feed, dose end: 13 week, group: systemic
mouse [2] = details: Carcinogenicity, other, Oral, Feed, dose end: 18 month, group: systemic
rat [3] = details: Subchronic oral toxicity in rodents, wistar, Feed, dose end: 13 week, group: systemic
rabbit = details: Prenatal developmental toxicity study, new zealand white, Oral, Gavage/Intubation, dose end: 18 GD
mouse [4] = details: Combined chronic toxicity/carcinogenicity, other, Oral, Feed, dose end: 80 week, group: systemic
rat [5] = details: Prenatal developmental toxicity study, sprague dawley, Oral, Gavage/Intubation, dose end: 15 GD
[6] = systemic / organ weight / adrenal gland / absolute
[7] = systemic / organ weight / adrenal gland / absolute + systemic / clinical chemistry / albumin / albumin + systemic / clinical chemistry / …
[8] = systemic / clinical chemistry / immunoglobulins / immunoglobulins
[9] = systemic / clinical chemistry / immunoglobulins / immunoglobulins + systemic / pathology microscopic / thymus / cyst
[10] = systemic / clinical chemistry / aspartate aminotransferase (ast/sgot) / aspartate aminotransferase (ast/sgot) + systemic / in life …
[11] = group: developmental, systemic / in life observation / body weight / fetal weight + developmental / developmental malformation / bone / unossified
[12] = group: maternal, systemic / in life observation / body weight / body weight gain + reproductive / reproductive performance / aborted / aborted + systemic / …
[13] = group: developmental, developmental / developmental malformation / bone / unossified + systemic / in life observation / body weight / fetal weight
[14] = group: maternal, systemic / in life observation / body weight / body weight gain + systemic / in life observation / clinical signs / poor general condition
[15] = group: maternal, systemic / in life observation / body weight / body weight gain + systemic / in life observation / clinical signs / poor general condition…

## [OH-].c1cc[c]([Sn+]([c]2ccccc2)[c]2ccccc2)cc1 [Triphenyltin hydroxide]
Mouse [1]; [6]
  LEL: 4.12 mg/kg/day
  LOAEL: 4.12 mg/kg/day
Mouse [1]; [7]
  NEL: 0.88 mg/kg/day
  NOAEL: 0.88 mg/kg/day
Mouse [2]; [8]
  LOAEL: 0.85 mg/kg/day
  NOAEL: < 0.85 mg/kg/day
Mouse [2]; [9]
  LEL: 0.85 mg/kg/day
  NEL: < 0.85 mg/kg/day
Rat [3]; systemic / clinical chemistry / aspartate aminotransferase (ast/sgot) / aspartate aminotransferase (ast/sgot) + systemic / clinical …
  LEL: 1.56 mg/kg/day
Rat [3]; [10]
  LOAEL: 7.41 mg/kg/day
  NEL: 0.3 mg/kg/day
  NOAEL: 1.56 mg/kg/day
rabbit; group: developmental, systemic / in life observation / body weight / fetal weight
  LOAEL: 0.9 mg/kg/day
rabbit; [11]
  LEL: 0.9 mg/kg/day
  NEL: 0.3 mg/kg/day
  NOAEL: 0.3 mg/kg/day
rabbit; group: maternal, systemic / in life observation / body weight / body weight gain
  LOAEL: 0.3 mg/kg/day
rabbit; [12]
  NEL: 0.1 mg/kg/day
  NOAEL: 0.1 mg/kg/day
rabbit; group: maternal, systemic / in life observation / body weight / body weight gain + systemic / in life observation / body weight / body weight + systemic / in…
  LEL: 0.3 mg/kg/day
Mouse [4]; [9]
  LEL: 0.85 mg/kg/day
  NEL: < 0.85 mg/kg/day
Mouse [4]; systemic / clinical chemistry / immunoglobulins / immunoglobulins + systemic / pathology microscopic / thymus / cyst + systemic / in life …
  NOAEL: 3.5 mg/kg/day
Mouse [4]; systemic / in life observation / body weight / body weight gain + systemic / organ weight / liver / absolute + systemic / organ weight / …
  LOAEL: 15.2 mg/kg/day
Rat [5]; [13]
  LEL: 8 mg/kg/day
  LOAEL: 8 mg/kg/day
  NEL: 2.8 mg/kg/day
  NOAEL: 2.8 mg/kg/day
Rat [5]; [14]
  LEL: 2.8 mg/kg/day
  LOAEL: 2.8 mg/kg/day
Rat [5]; [15]
  NEL: 1 mg/kg/day
  NOAEL: 1 mg/kg/day
